In general, Cmax refers to the maximum level reached in the sampled fluid or tissue. In general, AUC(0-t) refers to exposure summed from dosing to a finite time, without extrapolation to infinity.

Where two headings read alike, the source gives them in different places.

The series can be described thus: Pharmacokinetics of SNS-595 in cancer patients. It counts as in vivo, human. As to conditions: for AUC(0-inf): read-out: AUCINF_obs. As for the experimental part: SNS-595 was administered to enrolled patients for up to six cycles. A cycle is defined as a three-week period, with SNS-595 administered on the first day of each cycle (day 0), followed by at least 21 days of observation. SNS-595 was administered to cohorts of at least 3 patients and dose escalation occurred by sequential cohort.

Setting [1] is: dose 6 mg/m2, cancer patients, plasma.
[2] abbreviates: dose 12 mg/m2, cancer patients, plasma.
[3] abbreviates: dose 24 mg/m2, cancer patients, plasma.
Where [4] appears, read: dose 48 mg/m2, cancer patients, plasma.
[5] abbreviates: human, dose 12 mg/m2, cancer patients, plasma.

Regarding `CN[C@H]1CN(c2ccc3c(=O)c(C(=O)O)cn(-c4nccs4)c3n2)C[C@@H]1OC` [SNS-595, (+)-1,4-dihydro-7-[(3S,4S)-3-methoxy-4-(methylamino)-1-pyrrolidinyl]-4-oxo-1-(2-thiazoyl)-1,8-naphthyridine-3-carboxylic acid], the Vs_obs is given as 1.38 L/kg (dose 2 mg/m2, cancer patients, plasma); 1.28 L/kg under setting [1]; 1.17 L/kg under setting [2]; 1.18 L/kg under setting [3]; 1.37 L/kg under setting [4]. Moreover, the AUClast was 2408.08 ng·h/mL under setting [1] and 11132.02 ng·h/mL under setting [3]. Moreover, the CI_obs is 0.71 mL/min/kg under setting [1], 0.78 mL/min/kg under setting [2] and 0.83 mL/min/kg under setting [3]. The compound further yielded a Cmax under setting [1] of 347.06 ng/mL, a peak concentration (Cmax) under setting [3] of 2702.33 ng/mL and a Cmax under setting [4] of 2342.00 ng/mL. In addition, the AUC(0-inf) is, setting by setting: (human, dose 6 mg/m2, cancer patients, plasma) 2800 ng·h/mL; under setting [5], 5230 ng·h/mL. Besides, the AUC(0-t) under setting [5] is approximately 6280 ng·h/mL. Moreover, the “Consistency of pharmacokinetic properties among patients” value (patients in the same cohort) is listed as “remarkably consistent among patients in the same cohort”.

For the origin of these results see patent US20160361302A1, “SNS-595 AND METHODS OF USING THE SAME” (Sunesis Pharmaceuticals, Inc., priority 2004, published 2016).
